In patent US10588315B2, “Fungicidal compositions” (Syngenta Participations AG, priority 2012, dated 2020):
Where “and” joins values, the source holds several entries; their conditions need not be identical. Identical values can stand only once. Like-named read-outs stand apart in the source and are kept apart here.

Test system: Botryotinia fuckeliana (Botrytis cinerea)
Experiment: Botryotinia fuckeliana (Botrytis cinerea) / liquid culture
Assay type: cell-based
Experimental: Mycelia fragments or conidia suspensions of a fungus, prepared either freshly from liquid cultures of the fungus or from cryogenic storage, were directly mixed into nutrient broth. DMSO solutions of the test compound (max. 10 mg/ml) was diluted with 0.025% Tween20 by factor 50 and 10 μl of this solution was pipetted into a microtiter plate (96-well format). […] The test plates were incubated in the dark at 24° C. and 96% rh. The inhibition of fungal growth was determined photometrically and visually after 2-4 days, depending on the pathosystem, and percent antifungal activity relative to the untreated check was calculated.
Conidia of the fungus from cryogenic storage were directly mixed into nutrient broth (Vogels broth). After placing a (DMSO) solution of test compound into a microtiter plate (96-well format), the nutrient broth containing the fungal spores was added.

CON(C(=O)c1cn(C)nc1C(F)F)C(C)Cc1c(Cl)cc(Cl)cc1Cl (stereo not drawn) [Compound 1.001, 3-(difluoromethyl)-N-methoxy-1-methyl-N-[1-methyl-2-(2,4,6-trichlorophenyl)ethyl]pyrazole-4-carboxamide]
observed % activity (1.001 0.0031 ppm): 76% | observed % activity (1.001 0.0063 ppm): 69% and 63% and 85% and 64% and 88% and 74% and 87% | observed % activity (1.001 0.0125 ppm): 84% and 88% | inhibition at 0.0016 ppm (Botrytis cinerea, 1.001 0.0016 ppm (Table B55), read-out: observed % activity): 38% | inhibition at 0.0031 ppm (Botrytis cinerea, 1.001 0.0031 ppm (Table B54), read-out: observed % activity): 75% | inhibition at 0.0031 ppm (Botrytis cinerea, 1.001 0.0031 ppm (Table B55), read-out: observed % activity): 53% | inhibition at 0.0063 ppm (Botrytis cinerea, 1.001 0.0063 ppm (Table B54), read-out: observed % activity): 89% | inhibition at 0.0063 ppm (Botrytis cinerea, 1.001 0.0063 ppm (Table B55), read-out: observed % activity): 66% | inhibition at 0.0125 ppm (Botrytis cinerea, 1.001 0.0125 ppm, read-out: observed % activity): 83%
